Laboratory results reported in ChEMBL document CHEMBL1139760, “Studies on a series of potent, orally bioavailable, 5-HT(1) receptor ligands” (Bioorg Med Chem Lett, 2007).
pIC50, pKi: −log10 of the molar value. Calls of active or inactive are those of the source. The rule behind the calls is not given here.

How the values were obtained:
[1] = target: T1, 5-hydroxytryptamine receptor 1D (Homo sapiens, UniProt P28221); assay: Displacement of [3H]5-HT from human recombinant 5HT1D receptor expressed in CHO cells; assay type: cell-based
[2] = target: Cytochrome P450 2D6 (Homo sapiens, UniProt P10635); assay: Inhibition of CYP2D6; assay type: ADME
[3] = target: Cytochrome P450 3A4 (Homo sapiens, UniProt P08684); assay: Inhibition of CYP3A4; assay type: ADME
[4] = Clearance in rat blood at 1 mg/kg, iv; assay type: ADME, organism-based; parameters: dose 1 mg/kg, route intravenous
[5] = target: Cytochrome P450 2C19 (Homo sapiens, UniProt P33261); assay: Inhibition of CYP2C19; assay type: ADME
[6] = target: Cytochrome P450 2C9 (Homo sapiens, UniProt P11712); assay: Inhibition of CYP2C9; assay type: ADME
[7] = target: T2, 5-hydroxytryptamine receptor 1B (Homo sapiens, UniProt P28222); assay: Displacement of [3H]5-HT from human recombinant 5HT1B receptor expressed in CHO cells; assay type: cell-based
[8] = target: T2, 5-hydroxytryptamine receptor 1B; assay: Intrinsic activity at human recombinant 5HT1B receptor expressed in CHO cells by [35S]GTP-gamma-S binding assay relative to 5-hydroxytryptamine; assay type: functional, cell-based
[9] = target: T1, 5-hydroxytryptamine receptor 1D; assay: Intrinsic activity at human recombinant 5HT1D receptor expressed in CHO cells by [35S]GTP-gamma-S binding assay relative to 5-hydroxytryptamine; assay type: functional, cell-based
[10] = Ratio of drug level in brain to blood in rat at 3 mg/kg, po; assay type: ADME, organism-based; parameters: dose 3 mg/kg, route oral
[11] = target: Sodium-dependent serotonin transporter (Rattus norvegicus, UniProt P31652)
Description: Inhibition of [3H]5-HT uptake at SERT in rat cortical synaptosomes

[12] = target: T3, Cytochrome P450 1A2 (Homo sapiens, UniProt P05177); assay: Inhibition of CYP1A2; assay type: ADME
T3 sequence (P05177 whole entry): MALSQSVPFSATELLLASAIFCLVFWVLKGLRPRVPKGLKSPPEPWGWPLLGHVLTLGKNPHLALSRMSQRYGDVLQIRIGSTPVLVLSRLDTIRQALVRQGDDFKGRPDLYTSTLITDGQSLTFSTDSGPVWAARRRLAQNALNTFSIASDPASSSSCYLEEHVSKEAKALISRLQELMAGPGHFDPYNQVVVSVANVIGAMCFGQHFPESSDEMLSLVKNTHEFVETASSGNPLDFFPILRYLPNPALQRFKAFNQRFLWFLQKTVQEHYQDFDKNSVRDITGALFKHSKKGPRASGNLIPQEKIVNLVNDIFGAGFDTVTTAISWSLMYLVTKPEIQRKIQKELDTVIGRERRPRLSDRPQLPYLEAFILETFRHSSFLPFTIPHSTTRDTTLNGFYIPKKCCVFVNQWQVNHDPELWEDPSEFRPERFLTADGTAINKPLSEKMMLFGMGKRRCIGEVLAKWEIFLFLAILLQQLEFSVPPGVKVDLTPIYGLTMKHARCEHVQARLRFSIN

[13] = target: T4, 5-hydroxytryptamine receptor 1A (Homo sapiens, UniProt P08908); assay: Displacement of [3H]WAY 100635 from human recombinant 5HT1A receptor expressed in CHO cells; assay type: cell-based
T4 sequence (P08908 whole entry): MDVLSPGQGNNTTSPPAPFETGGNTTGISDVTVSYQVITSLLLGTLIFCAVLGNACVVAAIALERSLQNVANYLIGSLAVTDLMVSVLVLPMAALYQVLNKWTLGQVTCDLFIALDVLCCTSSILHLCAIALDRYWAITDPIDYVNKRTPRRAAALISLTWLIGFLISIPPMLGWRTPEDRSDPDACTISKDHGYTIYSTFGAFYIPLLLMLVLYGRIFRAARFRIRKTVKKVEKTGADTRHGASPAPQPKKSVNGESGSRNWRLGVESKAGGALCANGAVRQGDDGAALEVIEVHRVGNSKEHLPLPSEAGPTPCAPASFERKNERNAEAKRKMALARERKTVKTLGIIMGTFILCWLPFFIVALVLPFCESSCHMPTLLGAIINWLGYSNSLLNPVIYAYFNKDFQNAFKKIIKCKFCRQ

[14] = target: T5, 5-hydroxytryptamine receptor 1A (Homo sapiens) (UniProt P08908); assay: Intrinsic activity at human recombinant 5HT1A receptor expressed in CHO cells by [35S]GTP-gamma-S binding assay relative to 5-hydroxytryptamine; assay type: functional, cell-based
T5 sequence (whole entry): T4 sequence (P08908 whole entry)

[15] = Half life in rat at 1 mg/kg, iv; assay type: ADME, organism-based; parameters: dose 1 mg/kg, route intravenous; details: in vivo
[16] = target: T4, 5-hydroxytryptamine receptor 1A; assay: Displacement of [3H]-WAY100635 from human recombinant 5HT1A receptor expressed in CHO cells
[17] = Oral bioavailability in rat at 3 mg/kg; assay type: ADME, organism-based; details: in vivo
[18] = Volume of distribution at steady state in rat at 1 mg/kg, iv; assay type: ADME, organism-based; parameters: dose 1 mg/kg, route intravenous; details: in vivo, read-out: Vdss
[19] = tested on: Liver microsomes; assay: Metabolic stability assessed as intrinsic clearance in human liver microsomes; assay type: ADME, Microsome
[20] = tested on: Liver microsomes; assay: Metabolic stability assessed as intrinsic clearance in rat liver microsomes; assay type: ADME, Microsome
[21] = Selectivity for human recombinant 5HT1D receptor over rat cortical SERT
[22] = Selectivity for human recombinant 5HT1B receptor over rat cortical SERT
[23] = Selectivity for human recombinant 5HT1A receptor over rat cortical SERT
[24] = target: T6, Muscarinic acetylcholine receptor M1 (Homo sapiens) (UniProt P11229); assay: Inhibition of muscarinic M1 receptor at 1 uM
T6 sequence (whole entry): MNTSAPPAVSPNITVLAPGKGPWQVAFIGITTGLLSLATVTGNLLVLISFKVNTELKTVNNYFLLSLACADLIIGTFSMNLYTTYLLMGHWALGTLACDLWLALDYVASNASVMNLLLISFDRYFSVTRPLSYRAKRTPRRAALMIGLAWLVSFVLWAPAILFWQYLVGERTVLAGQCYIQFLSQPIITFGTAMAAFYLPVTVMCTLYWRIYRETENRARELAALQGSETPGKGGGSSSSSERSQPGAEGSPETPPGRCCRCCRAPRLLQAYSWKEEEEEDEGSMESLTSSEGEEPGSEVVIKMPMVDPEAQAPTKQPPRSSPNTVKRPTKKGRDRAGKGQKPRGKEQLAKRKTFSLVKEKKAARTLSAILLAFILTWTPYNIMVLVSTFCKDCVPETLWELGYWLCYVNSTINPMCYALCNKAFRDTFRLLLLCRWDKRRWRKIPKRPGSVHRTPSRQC

[25] = target: T7, Alpha-1A adrenergic receptor (Homo sapiens) (UniProt P35348); assay: Inhibition of adrenergic alpha1 receptor at 1 uM
T7 sequence (whole entry): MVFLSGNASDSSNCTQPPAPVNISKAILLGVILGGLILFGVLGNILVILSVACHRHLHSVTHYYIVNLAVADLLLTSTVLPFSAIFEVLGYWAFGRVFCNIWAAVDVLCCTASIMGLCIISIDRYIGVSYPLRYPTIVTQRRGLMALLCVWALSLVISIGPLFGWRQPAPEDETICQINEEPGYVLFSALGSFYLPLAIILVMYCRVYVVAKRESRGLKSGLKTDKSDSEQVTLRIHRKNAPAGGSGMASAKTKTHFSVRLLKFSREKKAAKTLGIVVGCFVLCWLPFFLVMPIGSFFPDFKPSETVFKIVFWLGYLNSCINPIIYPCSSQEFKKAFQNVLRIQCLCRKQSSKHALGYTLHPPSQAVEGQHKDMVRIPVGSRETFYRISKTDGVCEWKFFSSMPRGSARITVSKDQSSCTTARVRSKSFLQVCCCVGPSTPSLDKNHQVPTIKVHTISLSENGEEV

[26] = target: Histamine H2 receptor (Homo sapiens) (UniProt P25021); assay: Inhibition of histamine H2 receptor at 1 uM
Sequence of Histamine H2 receptor (Homo sapiens) (P25021 whole entry): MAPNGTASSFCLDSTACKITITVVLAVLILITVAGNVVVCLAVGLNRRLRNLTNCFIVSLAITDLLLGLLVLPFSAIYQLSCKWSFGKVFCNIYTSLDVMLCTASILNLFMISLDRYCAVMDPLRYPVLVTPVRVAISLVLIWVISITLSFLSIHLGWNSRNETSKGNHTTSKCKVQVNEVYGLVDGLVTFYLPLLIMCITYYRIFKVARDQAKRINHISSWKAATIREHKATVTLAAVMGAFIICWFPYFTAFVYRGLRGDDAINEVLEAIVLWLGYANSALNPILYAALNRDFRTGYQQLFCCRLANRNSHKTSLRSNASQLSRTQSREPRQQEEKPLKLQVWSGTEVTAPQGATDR

Sequence of Cytochrome P450 2C19 (P33261 whole entry): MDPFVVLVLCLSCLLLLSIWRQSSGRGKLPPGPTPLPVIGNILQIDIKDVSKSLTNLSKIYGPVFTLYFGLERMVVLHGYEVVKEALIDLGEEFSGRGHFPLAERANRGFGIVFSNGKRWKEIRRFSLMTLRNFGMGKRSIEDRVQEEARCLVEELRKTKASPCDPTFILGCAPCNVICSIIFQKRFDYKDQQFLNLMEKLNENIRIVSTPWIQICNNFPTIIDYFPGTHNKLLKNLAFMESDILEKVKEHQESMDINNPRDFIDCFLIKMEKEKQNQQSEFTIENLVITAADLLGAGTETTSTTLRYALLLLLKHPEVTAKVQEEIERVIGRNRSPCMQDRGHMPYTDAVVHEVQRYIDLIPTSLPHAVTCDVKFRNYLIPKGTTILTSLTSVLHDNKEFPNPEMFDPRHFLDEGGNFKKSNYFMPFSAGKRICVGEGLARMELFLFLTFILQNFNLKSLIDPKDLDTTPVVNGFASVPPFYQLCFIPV
Sequence of Cytochrome P450 2D6 (P10635 whole entry): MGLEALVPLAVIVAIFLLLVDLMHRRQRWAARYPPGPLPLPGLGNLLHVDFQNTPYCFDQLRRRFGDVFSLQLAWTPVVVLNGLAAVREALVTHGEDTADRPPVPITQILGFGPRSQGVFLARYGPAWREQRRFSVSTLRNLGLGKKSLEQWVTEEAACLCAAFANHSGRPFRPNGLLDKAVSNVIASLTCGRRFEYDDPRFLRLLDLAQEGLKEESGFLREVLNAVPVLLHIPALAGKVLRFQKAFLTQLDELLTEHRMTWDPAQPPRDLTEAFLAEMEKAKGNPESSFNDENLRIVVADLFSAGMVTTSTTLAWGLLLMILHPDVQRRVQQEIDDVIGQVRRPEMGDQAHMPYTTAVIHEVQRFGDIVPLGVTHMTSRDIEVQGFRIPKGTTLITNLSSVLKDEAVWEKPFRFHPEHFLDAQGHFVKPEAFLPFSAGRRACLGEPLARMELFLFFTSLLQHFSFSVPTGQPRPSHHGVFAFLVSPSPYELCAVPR
T1 sequence (P28221 whole entry): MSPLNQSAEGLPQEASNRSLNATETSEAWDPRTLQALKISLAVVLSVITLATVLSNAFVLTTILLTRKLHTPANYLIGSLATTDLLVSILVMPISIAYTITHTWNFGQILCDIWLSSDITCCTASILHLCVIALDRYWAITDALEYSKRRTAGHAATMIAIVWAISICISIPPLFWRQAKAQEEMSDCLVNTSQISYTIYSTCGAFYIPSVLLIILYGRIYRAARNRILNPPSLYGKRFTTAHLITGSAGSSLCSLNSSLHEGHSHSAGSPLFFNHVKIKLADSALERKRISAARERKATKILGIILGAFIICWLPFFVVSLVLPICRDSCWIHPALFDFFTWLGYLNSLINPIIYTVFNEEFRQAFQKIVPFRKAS
T2 sequence (P28222 whole entry): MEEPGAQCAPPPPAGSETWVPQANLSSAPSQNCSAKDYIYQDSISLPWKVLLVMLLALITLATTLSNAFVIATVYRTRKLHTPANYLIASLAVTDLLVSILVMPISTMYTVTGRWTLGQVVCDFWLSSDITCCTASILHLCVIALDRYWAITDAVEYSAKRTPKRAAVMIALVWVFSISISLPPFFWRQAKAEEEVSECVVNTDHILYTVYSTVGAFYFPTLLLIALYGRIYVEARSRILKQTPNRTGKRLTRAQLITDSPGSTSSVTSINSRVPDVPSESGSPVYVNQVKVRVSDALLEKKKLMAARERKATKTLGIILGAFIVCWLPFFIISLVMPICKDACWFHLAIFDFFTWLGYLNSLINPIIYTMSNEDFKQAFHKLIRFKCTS
Sequence of Sodium-dependent serotonin transporter (P31652 whole entry): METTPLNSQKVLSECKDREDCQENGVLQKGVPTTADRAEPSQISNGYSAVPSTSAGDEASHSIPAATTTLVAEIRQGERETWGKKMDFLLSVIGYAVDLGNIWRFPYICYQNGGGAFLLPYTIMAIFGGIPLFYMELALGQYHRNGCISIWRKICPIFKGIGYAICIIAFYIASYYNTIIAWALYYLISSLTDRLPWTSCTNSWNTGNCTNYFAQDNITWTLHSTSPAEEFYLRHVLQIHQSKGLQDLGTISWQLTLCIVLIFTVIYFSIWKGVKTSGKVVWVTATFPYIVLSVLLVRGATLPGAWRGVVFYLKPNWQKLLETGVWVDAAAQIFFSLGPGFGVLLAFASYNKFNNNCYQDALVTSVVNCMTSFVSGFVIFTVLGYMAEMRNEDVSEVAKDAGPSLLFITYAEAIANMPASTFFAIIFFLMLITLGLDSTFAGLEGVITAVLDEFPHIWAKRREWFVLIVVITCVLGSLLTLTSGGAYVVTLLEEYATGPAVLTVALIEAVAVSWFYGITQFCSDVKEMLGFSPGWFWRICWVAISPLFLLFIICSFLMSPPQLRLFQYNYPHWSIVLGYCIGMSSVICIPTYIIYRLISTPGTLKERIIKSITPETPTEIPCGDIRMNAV
Sequence of Cytochrome P450 2C9 (P11712 whole entry): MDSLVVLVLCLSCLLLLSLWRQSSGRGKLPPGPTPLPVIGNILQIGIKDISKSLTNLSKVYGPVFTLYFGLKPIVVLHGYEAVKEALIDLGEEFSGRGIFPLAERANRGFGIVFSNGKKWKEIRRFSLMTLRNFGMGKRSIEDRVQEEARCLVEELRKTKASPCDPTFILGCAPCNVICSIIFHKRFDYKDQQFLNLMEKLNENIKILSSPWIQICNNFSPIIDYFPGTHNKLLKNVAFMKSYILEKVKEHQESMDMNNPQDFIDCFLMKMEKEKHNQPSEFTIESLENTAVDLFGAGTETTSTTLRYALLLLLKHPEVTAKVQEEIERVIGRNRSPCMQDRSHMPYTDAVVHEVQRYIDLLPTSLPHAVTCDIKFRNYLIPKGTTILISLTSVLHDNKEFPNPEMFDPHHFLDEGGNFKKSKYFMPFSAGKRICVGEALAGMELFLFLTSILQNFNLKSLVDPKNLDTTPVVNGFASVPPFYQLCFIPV
Sequence of Cytochrome P450 3A4 (P08684 whole entry): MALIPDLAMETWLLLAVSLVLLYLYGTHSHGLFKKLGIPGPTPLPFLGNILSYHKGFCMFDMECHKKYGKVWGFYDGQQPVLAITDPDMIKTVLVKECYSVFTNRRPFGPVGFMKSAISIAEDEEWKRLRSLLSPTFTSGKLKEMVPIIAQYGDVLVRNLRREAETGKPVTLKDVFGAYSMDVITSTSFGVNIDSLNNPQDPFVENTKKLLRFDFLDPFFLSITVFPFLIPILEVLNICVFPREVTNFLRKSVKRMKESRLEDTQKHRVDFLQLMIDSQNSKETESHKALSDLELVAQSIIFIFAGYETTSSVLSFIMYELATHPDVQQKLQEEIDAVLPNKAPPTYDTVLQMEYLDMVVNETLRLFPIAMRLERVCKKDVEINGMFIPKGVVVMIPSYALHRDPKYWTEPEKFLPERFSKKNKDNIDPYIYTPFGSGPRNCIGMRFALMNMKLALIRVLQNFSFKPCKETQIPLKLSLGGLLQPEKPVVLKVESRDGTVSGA

SMILES | pKi [1] | pIC50 [2] | pIC50 [3] | clearance [4] | pIC50 [5] | pIC50 [6] | pKi [7] | Intrinsic activity [8] | Intrinsic activity [9] | pKi [11] | pIC50 [12] | pKi [13] | Intrinsic activity [14] | half-life [15] | pKi [16] | also measured
Cc1ccc2c(OCCN3CCN(Cc4cc(F)c5c(c4)N(C)C(=O)CO5)CC3)cccc2n1 | 9.40 | < 4.72 | < 4.72 | 14 mL/min/kg | < 4.72 | < 4.72 | 9.70 | 0.7 | 0.6 | 7.30 | < 4.72 | 8.10 | 0 | 1.3 h | – | Kp [10]: 3.6
CCCN1C(=O)COc2ccc(CN3CCN(CCOc4cccc5nc(C)ccc45)CC3)cc21 | 8.70 | – | – | – | – | 4.74 | 7.50 | 0.4 | 0.5 | 6.80 | – | 7.60 | 0.1 | – | 9.60 | –
CCCCN1C(=O)COc2ccc(CN3CCN(CCOc4cccc5nc(C)ccc45)CC3)cc21 | 8.50 | – | – | – | 4.80 | 4.92 | 7.50 | – | – | 6.80 | 5.40 | – | – | – | 8.90 | –
Cc1ccc2c(OCCN3CCN(Cc4ccc5c(c4)N(C)C(=O)CO5)CC3)cccc2n1 | 9.30 | < 4.70 | < 4.70 | – | < 4.70 | < 4.70 | 8.10 | 0.8 | – | 7.00 | < 4.70 | 8.00 | 0 | – | 8.80 | –
Cc1ccc2c(OCCN3CCN(Cc4ccc5c(c4)NC(=O)CO5)CC3)cccc2n1 | 8.00 | – | – | – | – | – | 7.00 | 0.6 | – | 7.60 | – | 7.20 | 0 | – | 8.80 | –
CCN1C(=O)COc2ccc(CN3CCN(CCOc4cccc5nc(C)ccc45)CC3)cc21 | 9.00 | – | – | – | – | 4.85 | 7.60 | 0.4 | 0.3 | 5.70 | 4.74 | 7.40 | 0.1 | – | 8.90 | –
Cc1ccc2c(OCCN3CCN(Cc4ccc5c(c4F)N(C)C(=O)CO5)CC3)cccc2n1 | 9.30 | < 4.80 | < 4.80 | 34 mL/min/kg | < 4.80 | < 4.80 | 8.80 | 0.4 | 0.6 | 7.10 | < 4.80 | 8.50 | 0 | 2 h | – | bioavailability [17]: 65%; Kp [10]: 2.7
CCN1C(=O)COc2ccc(CN3CCN(CCOc4cccc5nc(C)ccc45)CC3)c(F)c21 | 8.90 | < 5.05 | < 5.05 | 23 mL/min/kg | < 5.05 | < 5.05 | 8.80 | 0.5 | 0.7 | 6.70 | < 5.05 | 8.60 | 0.1 | 2.8 h | – | bioavailability [17]: 34%; Kp [10]: 1.2
COc1ccc(NC(=O)c2ccc(-c3ccc(-c4noc(C)n4)cc3C)cc2)cc1N1CCN(C)CC1 | – | – | – | – | – | – | – | 0.3 | 0.8 | – | – | – | – | – | – | –
Cc1ccc2c(OCCN3CCN(Cc4ccc5c(c4)N(CCc4ccccc4)C(=O)CO5)CC3)cccc2n1 | 8.70 | 4.85 | 5.05 | – | 5.30 | 5.40 | 7.60 | – | – | – | 4.77 | 7.50 | – | – | 8.90 | –
Cc1ccc2c(OCCN3CCC(Cc4ccc5c(c4)NC(=O)CO5)CC3)cccc2n1 | – | – | – | 50 mL/min/kg | – | – | – | 0.5 | 0.5 | – | – | – | 0.1 | 1.3 h | – | Vd [18]: 4.4 L/kg; CL [19]: 1.2 mL/min/g; bioavailability [17]: 40%; CL [20]: 3.4 mL/min/g
Cc1ccc2c(OCCN3CCN(Cc4ccc5c(c4)N(CC(C)C)C(=O)CO5)CC3)cccc2n1 | 8.60 | – | – | – | – | – | 7.50 | – | – | 5.80 | – | – | – | – | 8.70 | –
CCN1C(=O)COc2ccc(CC3CCN(CCOc4cccc5nc(C)ccc45)CC3)cc21 | 8.80 | – | – | 31 mL/min/kg | – | – | 8.40 | 0.4 | 0.6 | 6.90 | – | 8.50 | 0.1 | 1.6 h | 9.60 | Vd [18]: 2.5 L/kg; CL [19]: 2.8 mL/min/g; Ratio pKi [21]: 30; Ratio pKi [22]: 30; Ratio pKi [23]: 30; CL [20]: 7.7 mL/min/g
Cc1ccc2c(OCCN3CCC(Cc4ccc5c(c4)N(C)C(=O)CO5)CC3)cccc2n1 | 8.60 | – | – | 57 mL/min/kg | – | – | 8.20 | 0.5 | – | 7.40 | – | 8.20 | 0 | 1.3 h | 9.40 | Activity [24]: Active; Activity [25]: Active; Activity [26]: Active; Vd [18]: 4.2 L/kg; CL [19]: 0.9 mL/min/g; bioavailability [17]: 35%; Kp [10]: 1.3; CL [20]: 4.9 mL/min/g
Cc1ccc2c(OCCN3CCN(Cc4ccc5c(c4)N(Cc4ccccc4)C(=O)CO5)CC3)cccc2n1 | 8.20 | 4.82 | 4.92 | – | 4.96 | 5.15 | 7.20 | – | – | 6.50 | 4.96 | – | – | – | 8.40 | –
Cc1ccc2c(OCCN3CCC(Cc4ccc5c(c4)N(C(C)C)C(=O)CO5)CC3)cccc2n1 | 8.40 | – | – | – | – | – | 7.40 | 0.6 | – | 7.00 | – | 8.30 | 0 | – | 9.20 | –
